The values that follow come from US20080076772A1, “Anti-Inflammatory Agents” (Pharma Mar S.A. Sociedad Unipersonal, priority 2004, published 2008).

One series can be described thus: in vitro. The note with it: human. How it is done:
(§1) Purified populations of human blood monocytes were prepared as previously described by differential density centrifugation on Ficoll and Percoll gradients (see Allavena, P., Piemonti, L., Longoni, D., Bernasconi, S., Stoppacciaro, A., Ruco, L., and Mantovani, A. IL-10 prevents the differentiation of monocytes to dendritic cells but promotes their maturation to macrophages. Eur J Immunol, 28: 359-369, 1998). […] Human thymocytes were isolated from resected thymus from pediatric patients undergoing surgery. Thymocytes were obtained by teasing and isolated on Percoll gradient.
(§2) Cells were cultured at 10^6 cells/ml in complete medium RPMI (Biochrom, Berlin, FRG)+10% FCS (Hyclone, Logan, Utah). In vitro differentiated macrophages were obtained by culture of monocytes Monocyte-Colony Stimulating Factor (M-CSF) Peprotech (20 ng/ml), for 5 days. In some experiments, macrophages were treated with LPS (100 ng/ml) Sigma Aldrich, IFN gamma (500 IU/ml) or IL-4 (20 ng/ml) (Schering Plough) for 24 h.
(§3) Cell viability was analyzed by DNA content in Flow Cytometry
(§4) Cells exposed to treatments were fixed with ethanol 70%, washed in PBS and stained with propidium iodide (PI) solution containing 10 ug/ml PI in PBS and 25 μl RNAse 10,000 units, overnight in the dark. PI incorporation was evaluated on at least 20,000 cells/sample using a FACS Calibur instrument (Becton Dickinson, Sunnyvale, Calif., USA), with a bandpass filter at 620 nm. Apoptosis was detected by staining with AnnexinV and PI. FACS analysis was performed using a bandpass filter 530 and 620 nm for green (AnnexinV) and red (PI) fluorescence respectively, in combination with a […] dichroic mirror.
(§5) Purified preparations of blood monocytes, lymphocytes and thymocytes were cultured with different concentrations of ecteinascidin 743 for 48 h. Cell viability was assessed by DNA analysis and propidium iodide (PI) staining in Flow cytometry.
(§6) A kinetics analysis of the cytotoxic effect of ecteinascidin 743 was performed in the presence of M-CSF. Cells were treated with M-CSF (20 ng/ml) and different concentrations of ecteinascidin 743. Samples were collected at the indicated times and tested for DNA analysis.
(§7) Viability was assessed by PI staining and analyzed by Flow Cytometry.

The test system of a further series is blood monocytes. Briefly: in vitro. As to the method: as §1, §2, §3, §4, §5, §6, §7

Take `COc1cc2c(cc1O)CCN[C@]21CS[C@@H]2c3c(OC(C)=O)c(C)c4c(c3[C@H](COC1=O)N1[C@@H]2[C@H]2c3c(cc(C)c(OC)c3O)C[C@@H]([C@@H]1O)N2C)OCO4` [ecteinascidin 743]: the viability (in general, the share of living cells, or the viability signal relative to a control) at 5 days, 0.0005 µM in “in vitro” is 92%. In addition, the viability at 5 days, 0.001 µM in the series “in vitro” is 70%. For the same compound, the monocyte death in the series on blood monocytes (5 nM, 48 h incubation, with M-CSF) stood at 30%; with blood monocytes (5 nM, 48 h incubation, without M-CSF) it was 55%; in the series on blood monocytes (10 nM, 24 h treatment, with M-CSF), 35%; with blood monocytes (10 nM, 24 h treatment, without M-CSF), 65%. Moreover, the IC50 (commonly the concentration needed to halve the response being measured) in the series with blood monocytes (Homo sapiens, Monocyte, 48 h, read-out: lethal dose 50% (IC50), monocyte mortality) is 2.5 to 5 nM. In addition, the mortality – broadly, the share of the test organisms that died – at 0.0025 µM with blood monocytes (Homo sapiens, Monocyte, 120 h, read-out: mortality of monocytes) lay within 40 to 50%. In addition, in the series on blood monocytes (higher concentrations, after 24 h incubation, M-CSF 20 ng/ml), the “toxicity on monocytes (kinetics)” value is on record as “significant toxicity”.
